According to patent publication US20240148821A1, “PHARMACEUTICAL USE OF CYCLIC PEPTIDE COMPOUND” (CHUGAI SEIYAKU KABUSHIKI KAISHA, priority 2021, published 2024):
pIC50: −log10 of the molar value. Numbered stars: 1 amine (or outer) side, 2 acyl side, 3 side chain; on linkers, the order of the positions; unused ones are H or OH. Bridge positions count the residues as written; N and C are the ends. Square brackets hold non-standard residues; d marks the D form. Peptide text beside a SMILES is read from it. * marks the point of attachment. hPhe(3,5-F2-4-CF3) = N[C@@H](CCc1cc(F)c(C(F)(F)F)c(F)c1)C(=O)O; hPhe(3-Cl-4-CF3) = N[C@@H](CCc1ccc(C(F)(F)F)c(Cl)c1)C(=O)O; NMePhe(4-CF3) = CN[C@@H](Cc1ccc(C(F)(F)F)cc1)C(=O)O; hPhe(4-CF3) = N[C@@H](CCc1ccc(C(F)(F)F)cc1)C(=O)O; 3Oxa8azabicyclo(3.2.1)octane = C1CC2COCC1N2*; NMePhe(4-Cl) = CN[C@@H](Cc1ccc(Cl)cc1)C(=O)O; NMePhe(2-Cl) = CN[C@@H](Cc1ccccc1Cl)C(=O)O; hPhe(3-Cl) = N[C@@H](CCc1cccc(Cl)c1)C(=O)O; hPhe(4-Cl) = N[C@@H](CCc1ccc(Cl)cc1)C(=O)O; NMedβ3hAla = C[C@H](CC(=O)[*:2])N(C)[*:1]; NMeGly(cPent) = CN[C@H](C(=O)O)C1CCCC1; Pro(4,4-F2) = O=C(O)[C@@H]1CC(F)(F)CN1; NMeCha = CN[C@@H](CC1CCCCC1)C(=O)O; NMeAhp(2) = CCCCC[C@H](NC)C(=O)O; NMeChg = CN[C@H](C(=O)O)C1CCCCC1; NMeD = CN[C@@H](CC(=O)O)C(=O)O; NMeL = CN[C@@H](CC(C)C)C(=O)O; NMeV = CN[C@H](C(=O)O)C(C)C; d(β3hA) = C[C@@H](N)CC(=O)O; NMeS = CN[C@@H](CO)C(=O)O; NMeA = CN[C@@H](C)C(=O)O; Piperidide = C1CCN(*)CC1; Pyrrolidide = C1CCN(*)C1; Ac5c = NC1(C(=O)O)CCCC1; Aze = O=C(O)[C@@H]1CCN1; NBuGly = CCCCNCC(=O)O; Aib = CC(C)(N)C(=O)O; Sar = CNCC(=O)O; Propyl = CCC*

What follows are molecules tested against protein-protein interaction between Kras and SOS1 (biotin-tagged human Kras loaded with GDP, His-tagged human SOS1) (Homo sapiens (Human), UniProt P01116, G12D) (assay: Protein-protein interaction inhibition between Kras and SOS1 (KrasG12D-SOS PPI) using AlphaScreen). Conditions: AlphaScreen; biotin-tagged human Kras loaded with GDP, His-tagged human SOS1; read-out: KRAS G12D-SOS PPI IC50.
Assay type: biochemical

`CCCCN1CC(=O)N(C)[C@@H](Cc2ccc(Cl)cc2)C(=O)N(C)CC(=O)N[C@@H](CCc2ccc(C(F)(F)F)cc2)C(=O)N(C)[C@@H](CC(C)C)C(=O)NC(C)(C)C(=O)N(C)[C@@H](CC(C)C)C(=O)N[C@H](C)CC(=O)N(C)[C@@H](C)C(=O)N[C@@H]([C@@H](C)CC)C(=O)N(C)CC1=O` [Compound 602] (cyclo([Aib][NMeL][d(β3hA)][NMeA]I[Sar][NBuGly][NMePhe(4-Cl)][Sar][hPhe(4-CF3)][NMeL])) and `CC[C@H](C)[C@@H]1NC(=O)[C@H](CC2CCCCC2)N(C)C(=O)C[C@@H](C)NC(=O)[C@H](CC(C)C)N(C)C(=O)C(C)(C)NC(=O)[C@H](CC(C)C)N(C)C(=O)[C@H](CCc2ccc(C(F)(F)F)cc2)NC(=O)CN(C)C(=O)[C@H](Cc2ccc(Cl)cc2)N(C)C(=O)CN(C)C(=O)CN(C)C1=O` [Compound 615] (cyclo([Aib][NMeL][d(β3hA)][NMeCha]I[Sar][Sar][NMePhe(4-Cl)][Sar][hPhe(4-CF3)][NMeL])) are within 0.2 log units of each other in pIC50: 6.55 for the first, 6.66 for the second.

First: CC[C@H](C)[C@@H]1NC(=O)[C@H](CC(C)C)N(C)C(=O)C[C@@H](C)N(C)C(=O)[C@H](C2CCCCC2)N(C)C(=O)C2(CCCC2)NC(=O)[C@@H]2CC(F)(F)CN2C(=O)[C@H](CCc2cc(F)c(C(F)(F)F)c(F)c2)NC(=O)CN(C)C(=O)[C@H](Cc2ccc(C(F)(F)F)cc2)N(C)C(=O)[C@@H]2CCN2C(=O)[C@H](C)N(C)C1=O [Compound 606] (cyclo([Ac5c][NMeChg][NMedβ3hAla][NMeL]I[NMeA][Aze][NMePhe(4-CF3)][Sar][hPhe(3,5-F2-4-CF3)][Pro(4,4-F2)]))
Second: CCCCC[C@H]1C(=O)N[C@@H]([C@@H](C)CC)C(=O)N(C)[C@@H](C)C(=O)N2CC[C@H]2C(=O)N(C)[C@@H](COCCC)C(=O)N(C)CC(=O)N[C@@H](CCc2ccc(C(F)(F)F)c(Cl)c2)C(=O)N2CCC[C@H]2C(=O)NC2(CCCC2)C(=O)N(C)[C@@H](C2CCCC2)C(=O)N(C)[C@H](C(=O)N2C3CCC2COC3)CC(=O)N1C [Compound 622] ([NMeAhp(2)]I[NMeA][Aze][NMeS](Propyl)[Sar][hPhe(3-Cl-4-CF3)]P[Ac5c][NMeGly(cPent)][NMeD]-{3Oxa8azabicyclo(3.2.1)octane}; lactam N-11)
The pIC50 of the first is 0.69 log units lower: 8.08 for the first, 8.77 for the second.

Going from `CC[C@H](C)[C@@H]1NC(=O)[C@H](C)N(C)C(=O)C[C@@H](C(=O)N2CCCC2)N(C)C(=O)[C@H](C(C)C)N(C)C(=O)C2(CCCC2)NC(=O)[C@H](Cc2ccccc2Cl)N(C)C(=O)[C@H](CCc2ccc(Cl)cc2)NC(=O)CN(C)C(=O)[C@H](CC2CCCCC2)N(C)C(=O)CN(C)C(=O)CN(C)C1=O` [Compound 607] ([NMeA]I[Sar][Sar][NMeCha][Sar][hPhe(4-Cl)][NMePhe(2-Cl)][Ac5c][NMeV][NMeD]-Pyrrolidide; lactam N-11) to `CC[C@H](C)[C@@H]1NC(=O)[C@H](C)N(C)C(=O)C[C@@H](C(=O)N2CCCCC2)N(C)C(=O)[C@H](C(C)C)N(C)C(=O)C2(CCCC2)NC(=O)[C@@H]2CCCN2C(=O)[C@H](CCc2cccc(Cl)c2)NC(=O)CN(C)C(=O)[C@H](CC2CCCCC2)N(C)C(=O)[C@@H]2CCN2C(=O)[C@H](C)N(C)C1=O` [Compound 625] ([NMeA]I[NMeA][Aze][NMeCha][Sar][hPhe(3-Cl)]P[Ac5c][NMeV][NMeD]-Piperidide; lactam N-11), the pIC50 rises from 6.66 to 7.15 (0.49 log units). The second is the more potent here.

Work on `CC[C@H](C)[C@@H]1NC(=O)[C@H](C(C)C)N(C)C(=O)C[C@@H](C(=O)N2CCCCC2)NC(=O)[C@H](CC(C)C)N(C)C(=O)C2(CCCC2)NC(=O)[C@H](CC(C)C)N(C)C(=O)[C@H](CCc2ccc(C(F)(F)F)cc2)NC(=O)CN(C)C(=O)[C@H](Cc2ccc(Cl)cc2)N(C)C(=O)CN(C)C(=O)CN(C)C1=O` [Compound 610] ([NMeV]I[Sar][Sar][NMePhe(4-Cl)][Sar][hPhe(4-CF3)][NMeL][Ac5c][NMeL]D-Piperidide; lactam N-11) yielded a pIC50 of 6.82.
